Consider nine compounds from publication PMC4058747, “Structural Mechanisms Determining Inhibition of the Collagen Receptor DDR1 by Selective and Multi-Targeted Type II Kinase Inhibitors” (Journal of Molecular Biology, 2014).

Molecules are shown by their SMILES. Where two headings read alike, the source gives them in different places.

One test concerns the target T1, DDR2 (Homo sapiens, UniProt Q16832).
T1 construct: purchased Invitrogen
T1 sequence (Q16832 22-855): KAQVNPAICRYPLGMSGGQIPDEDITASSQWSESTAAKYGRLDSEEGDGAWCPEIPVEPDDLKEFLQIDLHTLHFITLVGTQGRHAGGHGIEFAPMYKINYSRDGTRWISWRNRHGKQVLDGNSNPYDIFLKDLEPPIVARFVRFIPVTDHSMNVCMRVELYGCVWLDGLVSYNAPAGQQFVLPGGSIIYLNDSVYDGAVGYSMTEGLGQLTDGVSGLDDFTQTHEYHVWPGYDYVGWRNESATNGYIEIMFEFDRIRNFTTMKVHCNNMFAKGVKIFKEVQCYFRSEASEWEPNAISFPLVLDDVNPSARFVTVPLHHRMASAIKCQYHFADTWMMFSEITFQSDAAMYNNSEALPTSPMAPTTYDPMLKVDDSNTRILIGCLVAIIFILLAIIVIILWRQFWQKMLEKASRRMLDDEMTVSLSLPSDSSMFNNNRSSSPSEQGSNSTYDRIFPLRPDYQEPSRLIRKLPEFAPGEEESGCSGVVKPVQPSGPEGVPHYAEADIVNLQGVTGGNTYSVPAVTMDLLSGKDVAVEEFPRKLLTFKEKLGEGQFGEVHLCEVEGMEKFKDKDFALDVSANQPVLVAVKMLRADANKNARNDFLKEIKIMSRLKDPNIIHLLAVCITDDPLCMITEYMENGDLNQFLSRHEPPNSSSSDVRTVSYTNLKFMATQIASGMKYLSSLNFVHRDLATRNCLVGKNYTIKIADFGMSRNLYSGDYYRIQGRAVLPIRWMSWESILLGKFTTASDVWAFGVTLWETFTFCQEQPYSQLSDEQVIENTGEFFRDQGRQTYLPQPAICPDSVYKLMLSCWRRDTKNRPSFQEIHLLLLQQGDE
Nature of the test: LanthaScreen kinase activity assay (Invitrogen), DDR2. The test is classed as biochemical. The note with it: read-out: Enzymatic IC50 values DDR2. The method, then: (§1) IC50 values were determined by Invitrogen using a LanthaScreen kinase activity assay.
(§2) Figure S2. Inhibition of DDR1 and DDR2. (a) IC50 values for DDR1 inhibition determined by using a LanthaScreen kinase activity assay (Invitrogen). (b) IC50 values for DDR2 inhibition determined similarly.
(In general: Time-resolved FRET reads energy transfer from a long-lived donor to a nearby acceptor.)

Test [1] addresses T2, DDR1 (Homo sapiens, UniProt Q08345).
T2 construct: purchased Invitrogen
Kind of test: LanthaScreen kinase activity assay (Invitrogen), DDR1. Format: biochemical. The note with it: for IC50: LanthaScreen kinase activity assay, read-out: Enzymatic IC50 values DDR1; for activity of analogs against DDR1 kinase activity (in words): removal of the trifluoromethyl group. The protocol:
as §1, §2

In test [2] the target is T2, DDR1. Set-up: method as in PMID 23275061. The conditions noted are these: cited from earlier work.
Test [3] deals with T2, DDR1. Set-up: method as in PMID 23275061. The note with it: cited from earlier work. This is another data set of the same source.
In a further test the test system is ABL. Details: method as in PMID 23899692. The note with it: quoted for selectivity relative to DDR1; cited from earlier work.

T2 sequence (Q08345 19-913): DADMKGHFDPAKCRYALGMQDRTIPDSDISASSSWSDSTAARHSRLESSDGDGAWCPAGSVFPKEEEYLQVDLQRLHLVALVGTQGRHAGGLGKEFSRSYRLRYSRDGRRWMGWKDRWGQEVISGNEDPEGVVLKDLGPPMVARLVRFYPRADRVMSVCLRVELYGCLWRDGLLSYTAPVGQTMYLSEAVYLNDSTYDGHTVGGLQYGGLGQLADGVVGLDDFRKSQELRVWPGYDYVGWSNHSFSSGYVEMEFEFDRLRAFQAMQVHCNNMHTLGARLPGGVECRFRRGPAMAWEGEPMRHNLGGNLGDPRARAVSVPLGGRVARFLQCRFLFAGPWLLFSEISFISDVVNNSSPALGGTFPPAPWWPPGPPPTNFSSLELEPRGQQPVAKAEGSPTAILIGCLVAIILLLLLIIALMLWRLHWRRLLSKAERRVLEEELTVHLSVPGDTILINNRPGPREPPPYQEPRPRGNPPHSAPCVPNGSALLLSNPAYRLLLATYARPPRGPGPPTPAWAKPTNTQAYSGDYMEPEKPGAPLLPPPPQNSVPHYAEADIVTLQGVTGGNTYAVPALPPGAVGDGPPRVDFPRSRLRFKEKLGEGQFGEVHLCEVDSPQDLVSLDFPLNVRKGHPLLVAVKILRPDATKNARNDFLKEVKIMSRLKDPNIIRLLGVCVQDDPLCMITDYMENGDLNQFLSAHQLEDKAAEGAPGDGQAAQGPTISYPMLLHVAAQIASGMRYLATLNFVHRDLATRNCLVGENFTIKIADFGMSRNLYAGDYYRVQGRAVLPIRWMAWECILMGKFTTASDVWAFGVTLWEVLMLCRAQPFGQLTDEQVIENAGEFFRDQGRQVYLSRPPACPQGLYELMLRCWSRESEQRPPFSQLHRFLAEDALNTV

`Cc1ccc(NC(=O)c2cc(N3CCN(CCO)CC3)cc(C(F)(F)F)c2)cc1Oc1ccc2c(c1)CC(=O)N2` [Compound 3]: the IC50 (in general, the midpoint of a concentration-inhibition curve) was found to be 546 nM at DDR2 and 182 nM at DDR1 [1].

Turning to `CCN1CCN(Cc2ccc(NC(=O)Nc3ccc(C)c(Oc4ccc5c(c4)CC(=O)N5)c3)cc2C(F)(F)F)CC1` [Compound 1], the IC50 on DDR2 amounted to 785 nM; on DDR1 [1], 262 nM.

With `CCN1CCN(Cc2ccc(C(=O)Nc3ccc(C)c(Oc4ccc5c(c4)CC(=O)N5)c3)c(F)c2)CC1` [Compound 6], the IC50 at DDR2 and at DDR1 [1] was > 10000 nM throughout. The “activity of analogs against DDR1 kinase activity (in words)” value at DDR1 [1] was “inactive”.

As for `Cc1ccc(C(=O)Nc2ccc(Oc3cc4cnn(C)c4cc3-c3cn[nH]c3)c(F)c2)c(=O)n1-c1ccc(F)cc1` [LY2801653], the IC50 at DDR1 [2] is < 1 nM. The EC50 (usually the midpoint of the concentration-response curve) at DDR1 [3] was < 1 nM.

In the case of `CCN1CCN(Cc2ccc(F)c(C(=O)Nc3ccc(C)c(Oc4ccc5c(c4)CC(=O)N5)c3)c2)CC1` [Compound 7], at DDR2, the IC50 was > 10000 nM. In addition, at DDR1 [1], the IC50 was determined as 8940 nM and the “activity of analogs against DDR1 kinase activity (in words)” value is “inactive”.

As for `CCN1CCN(Cc2ccc(C(=O)Nc3ccc(C)c(Oc4ccc5c(c4)CC(=O)N5)c3)cc2C(F)(F)F)CC1` [DDR1-IN-1], the results for the IC50 on DDR2 and with ABL were 413 nM and 1800 nM, respectively.

Regarding `Cc1ccc(NC(=O)c2ccc(OC3CCN(C)CC3)c(C(F)(F)F)c2)cc1Oc1ccc2c(c1)CC(=O)N2` [Compound 2], the half-inhibitory concentration (IC50) turned out to be 338 nM at DDR2 and 115 nM on DDR1 [1].

For the compound `Cc1ccc(NC(=O)c2cccc(C(C)(C)C#N)c2)cc1Oc1ccc2c(c1)CC(=O)N2` [Compound 5], the results for the IC50 at DDR2 and on DDR1 [1] were 1020 nM and 174 nM, respectively.

Take `CCN1CCN(c2cc(C(=O)Nc3ccc(C)c(Oc4ccc5c(c4)CC(=O)N5)c3)cc(C(F)(F)F)c2)CC1` [Compound 4]: the IC50 was 385 nM on DDR2 and 150 nM on DDR1 [1].
